{
  "source": "patent US20240226055A1",
  "about": "“TREATMENT OF DISORDERS WITH TASIMELTEON” (Vanda Pharmaceuticals Inc., priority 2018, published 2024)",
  "key": {"[1]": {"experiment": "Phase III clinical study of an 8-hour advance in usual bedtime (jet lag disorder circadian challenge)", "assay_type": "in vivo, human", "text": "In the course of the trial, volunteers are subjected to a circadian challenge of an 8-hour advance in their usual bedtime, consistent with the circadian challenge induced in travelers crossing eight time zones (e.g., Los Angeles to London or Washington, DC to Moscow) and typically causing jet lag disorder.\nThe pre-specified primary endpoint used for this purpose is the amount of sleep time in the first two thirds of the night. Secondary endpoints include measures of various sleep parameters-total sleep time (TST), latency to persistent sleep (LPS), and wake after sleep onset (WASO)-as well as next day alertness, measured using the Karolinska Sleepiness Scale (KSS) and Visual Analog Scale (VAS)."}, "[2]": {"experiment": "Two-phase transatlantic travel study (jet lag, five or eight time zones)", "assay_type": "in vivo, human", "conditions": "for Objective TST2/3 Night 3, change from baseline: 20 mg for three consecutive nights prior to bedtime; for Objective TST2/3 Night 3, change from baseline / Objective TST2/3 All 3 nights, change from baseline: treated travel vs baseline observational travel", "text": "A two-phase transatlantic travel study of 25 subjects (tasimelteon n=13, placebo n=12) comprises a first phase that is an observational travel study to collect baseline data, and a second phase that is a treatment phase. Participants in the study travel either five or eight time zones from Washington, DC to London (five time zones) or San Francisco or Los Angeles to London (eight time zones). Participants stay at their destination for three nights and four days and during randomization receive 20 mg of tasimelteon for three consecutive nights prior to their bedtime. Efficacy is monitored by PSG as well as sleep and wake questionnaire scales.\nThe primary endpoint of the study is TST for the first 2/3 of the night(s) most likely to be disrupted. These are, from Table 2, Night 3, followed by Night 1 and Night 2.\nMeasures of global function, including Patient Global Impression of Severity (PGI-S) and KSS also favor tasimeltcon."}, "[3]": {"conditions": "20 mg dose, 8-hour bedtime advance, difference from placebo"}, "[4]": {"conditions": "20 mg dose, 8-hour bedtime advance, treatment group value"}, "[5]": {"conditions": "8-hour phase advance, difference from placebo"}, "[6]": {"conditions": "8-hour phase advance, treatment group value"}, "[7]": {"conditions": "20 mg for three consecutive nights, Post-Sleep Questionnaire"}, "[8]": {"conditions": "20 mg for three consecutive nights, difference from placebo"}, "[9]": {"conditions": "Post-Sleep Questionnaire, difference from placebo"}},
  "data": [
    {"smiles": "CCC(=O)NC[C@@H]1C[C@H]1c1cccc2c1CCO2", "note": "[Hetlioz ®, tasimelteon]", "values": [
      {"measurement": "PSG TST2/3 (sleep time in first two thirds of the night, primary endpoint)", "setting": "[1]; 20 mg dose, 8-hour bedtime advance, healthy volunteers, treatment group value", "value": 216.4, "unit": "min"},
      {"measurement": "KSS (1-9) average, next day alertness", "setting": "[1]; 20 mg dose, 8-hour bedtime advance, Karolinska Sleepiness Scale, treatment group value", "value": 4.0},
      {"measurement": "VAS (0-100) average, next day alertness", "setting": "[1]; 20 mg dose, 8-hour bedtime advance, Visual Analog Scale, treatment group value", "value": 60.8},
      {"measurement": "KSS (1-9) average, Diff vs placebo", "setting": "[1]; [3]", "value": "−0.53"},
      {"measurement": "PSG LPS, Diff vs placebo", "setting": "[1]; [3]", "value": -15.08, "unit": "min"},
      {"measurement": "PSG TST2/3, Diff vs placebo", "setting": "[1]; [3]", "value": 60.31, "unit": "min"},
      {"measurement": "PSG TSTfull, Diff vs placebo", "setting": "[1]; [3]", "value": 85.46, "unit": "min"},
      {"measurement": "PSG WASO, Diff vs placebo", "setting": "[1]; [3]", "value": -74.58, "unit": "min"},
      {"measurement": "VAS (0-100) average, Diff vs placebo", "setting": "[1]; [3]", "value": 6.59},
      {"measurement": "PSG TSTfull, Diff vs placebo", "setting": "[1]; 20 mg dose, 8-hour bedtime advance, difference from placebo, listed as tasimelteon", "value": 85, "unit": "min"},
      {"measurement": "PSG LPS (latency to persistent sleep)", "setting": "[1]; [4]", "value": 21.8, "unit": "min"},
      {"measurement": "PSG TSTfull (total sleep time)", "setting": "[1]; [4]", "value": 315.8, "unit": "min"},
      {"measurement": "PSG WASO (wake after sleep onset)", "setting": "[1]; [4]", "value": 144.6, "unit": "min"},
      {"measurement": "PSG REMTotal, Difference vs placebo", "setting": "[1]; [5]", "value": 13.7, "unit": "min"},
      {"measurement": "REMAccumulate, Difference vs placebo", "setting": "[1]; [5]", "value": -53.3, "unit": "min"},
      {"measurement": "REMAchieved, Difference vs placebo", "setting": "[1]; [5]", "value": 24.5, "unit": "%"},
      {"measurement": "PSG REMTotal (total REM sleep period)", "setting": "[1]; [6]", "value": 48.9, "unit": "min"},
      {"measurement": "REMAccumulate (time required to accumulate 30 minutes of REM sleep)", "setting": "[1]; [6]", "value": 318.7, "unit": "min"},
      {"measurement": "REMAchieved", "setting": "[1]; [6]", "value": 76.1, "unit": "%"},
      {"measurement": "Objective TST2/3 Night 3, change from baseline", "setting": "[2]; listed as HETLIOZ ®", "value": 76.2, "unit": "min"},
      {"measurement": "Objective TST2/3 Night 3, change from baseline", "setting": "[2]; listed as Tasimelteon", "value": 76, "unit": "min"},
      {"measurement": "Global measures KSS Day 4, change from baseline", "setting": "[2]; 20 mg for three consecutive nights, Karolinska Sleepiness Scale", "value": "−1.69"},
      {"measurement": "Global measures PGI-S Day 3, change from baseline", "setting": "[2]; 20 mg for three consecutive nights, Patient Global Impression of Severity", "value": "−0.71"},
      {"measurement": "Subjective Sleep Latency Night 3, change from baseline", "setting": "[2]; [7]", "value": "−20.6"},
      {"measurement": "Subjective Sleep Quality Night 3, change from baseline", "setting": "[2]; [7]", "value": 1.31},
      {"measurement": "Subjective TSTFull All 3 Nights, change from baseline", "setting": "[2]; [7]", "value": 240.0},
      {"measurement": "Subjective TSTFull Night 3, change from baseline", "setting": "[2]; [7]", "value": 111.9},
      {"measurement": "Subjective WASO Night 3, change from baseline", "setting": "[2]; [7]", "value": "−81.1"},
      {"measurement": "Objective TST2/3 All 3 nights, change from baseline, Difference vs placebo", "setting": "[2]; [8]", "value": 90.6, "unit": "min"},
      {"measurement": "Objective TST2/3 Night 3, change from baseline, Difference vs placebo", "setting": "[2]; [8]", "value": 34.8, "unit": "min"},
      {"measurement": "Objective TST2/3 All 3 nights, change from baseline", "setting": "[2]; 20 mg for three consecutive nights, listed as HETLIOZ ®", "value": 131.4, "unit": "min"},
      {"measurement": "Objective TST2/3 All 3 nights, change from baseline", "setting": "[2]; 20 mg for three consecutive nights, listed as Tasimelteon", "value": 131, "unit": "min"},
      {"measurement": "Global measures KSS Day 4, change from baseline, Difference vs placebo", "setting": "[2]; Karolinska Sleepiness Scale, difference from placebo", "value": "−1.00"},
      {"measurement": "Global measures PGI-S Day 3, change from baseline, Difference vs placebo", "setting": "[2]; Patient Global Impression of Severity, difference from placebo", "value": "−0.63"},
      {"measurement": "Subjective Sleep Latency Night 3, change from baseline, Difference vs placebo", "setting": "[2]; [9]", "value": "−26.5"},
      {"measurement": "Subjective Sleep Quality Night 3, change from baseline, Difference vs placebo", "setting": "[2]; [9]", "value": 0.95},
      {"measurement": "Subjective TSTFull All 3 Nights, change from baseline, Difference vs placebo", "setting": "[2]; [9]", "value": 174.9},
      {"measurement": "Subjective TSTFull Night 3, change from baseline, Difference vs placebo", "setting": "[2]; [9]", "value": 78.5},
      {"measurement": "Subjective WASO Night 3, change from baseline, Difference vs placebo", "setting": "[2]; [9]", "value": "−56.4"}
    ]}
  ]
}
